# Data published in patent publication US5756537A (Parkash S. Gill, M.D., Inc., priority 1996, dated 1998).
# “Also recorded” adds a separate entry of the source. Read-outs that look alike come from different tables or passages of the source.
# Tests used:
# Kaposi's sarcoma [1] = experiment: Example 4: person with KS; assay type: in vivo, human
# Excerpt: Due to very extensive disease, a representative area of tumor was monitored.
# bone marrow suppression [2] = details: human, in vivo
# Kaposi's sarcoma [3] = details: […]^2 to 175 mg/m^2 over three hours, every 21 days; cited from earlier work
# KS Y-1 cells = experiment: In vivo KS tumor model in nude mice; set-up: species or system Balbc/nu mouse; details: 10 mg/kg intraperitoneally, days 1, 5 and 9; measured day 14 and 21
# Procedure: FIG. 2. […] Tumor size was measured on days 14 and 21.
# KS cell lines that propagate in the immunodeficient mouse were treated with paclitaxel. 1.0×10^7 cells were implanted subcutaneously in each Balbc/nu (Charles River) mouse.
# bone marrow suppression [4] = experiment: G-CSF use in the clinical trial patients
# Kaposi's sarcoma [5] = experiment: Paclitaxel peak levels, AUC and relation to effect and side effects in KS patients
# Procedure: (§1) This area is calculated using the equation: [formula] where λi is the exponent of the i-th exponential term, and Ci is the initial concentration of the i-th component of the curve. Curve fitting with this model yields the parameters Ci, C2, C3 λ1, λ2 and λ3. The half-lives (t1/2 s) are calculated from the equations t1/2 (α)=0.693/λ1, t1/2 (β)=0.693/λ2 and t1/2 (γ)=0.693/λ3. The total area under the curve (AUC0→.infin.)) is calculated using the linear trapezoidal method with extrapolation of the terminal phase to infinity (Clast /λ3), where Clast is the last measured concentration.
# (§2) Typically, maintenance therapy is maintained for a minimum of 3-5 cycles.
# [6] = as above; details: human, blood, iv
# Procedure: as §1, §2
# Kaposi's sarcoma [7] = experiment: Clinical results with paclitaxel in KS, overall
# Procedure: The mode or route of administration can be parenteral: e.g., intravenous; intraperitoneal; subcutaneous; oral; or topical for cutaneous tumors.
# All patients had advanced KS defined by more than 25 cutaneous lesions, or presence of visceral disease, or lymphedema. Other eligibility criteria included adequate hepatic, renal, and bone marrow function defined as a bilirubin<2.0 mg/dl, GOT<x upper limit of normal, creatinine<2.1 mg/dl, granulocytes>1000/mm^3, and platelets>75,000/mm^3. Patients could not have had prior therapy for their KS within the last 2 weeks. The dosage and schedule was 100 mg/m^2 intravenously every 2 weeks.
# [8] = test system: ovarian and breast cancer; details: cited from earlier work
# AIDS-KS [9] = test system: AIDS-KS
# [10] = test system: AIDS-KS spindle cell lines, KS Y-1 P105; experiment: Cell proliferation assay (cell counting, day 5 or 6); assay type: cell-based
# Procedure: FIG. 1. […] At that time surviving cells were assayed by cell counting.
# AIDS-KS spindle cell lines were seeded at a density of 1.0×10^4 cells/well in a 24-well plate in KS medium. […] The cell counts were performed on day 5 or 6 using a Coulter Particulate Counter (Hialeah, Fla.).
# AIDS-KS [11] = experiment: Phase II trial, strata 2 (no prior systemic chemotherapy); assay type: in vivo, human; details: 100 mg/m^2 iv every 2 weeks
# Excerpt: Strata 2 of the study consisted of 20 patients with advanced AIDS-KS who had not received any prior systemic chemotherapy. The demographic characteristics and the results of treatment are provided below (Table 4-6).
# Kaposi's sarcoma [12] = experiment: Example 3: HIV-negative person with KS; assay type: in vivo, human
# Excerpt: Patient, a very fragile person presented with KS. […] Other medical problems included hypertension, cardiac arrhythmia, congestive heart failure, and hypothyroidism.
# Prior therapy included radiation therapy. The radiated areas included both feet and eye lids. […] Cytotoxic chemotherapy was given with combination chemotherapy consisting of bleomycin, vincristine and adriamycin.
# Premedication included dexamethasone, diphenhydramine, and cimetidine.
# Kaposi's sarcoma [13] = experiment: Example 5: pilot study of ten patients; assay type: in vivo, human; details: 100 mg/m^2 over 3 hr every 2 weeks
# Excerpt: Seven of these ten patients had previously been treated with one or more previous regimens cytotoxic chemotherapy regimens. All were severely immunodeficient with history of opportunistic infection in six, advanced KS with numerous cutaneous KS lesions, involvement of visceral disease (which is generally fatal) in five.
# [14] = of patients with no G-CSF prior to paclitaxel
# [15] = 33 evaluable, 100 mg/m^2 iv every 2 weeks
# [16] = 75 mg/m^2 every two weeks, three hour infusion
compound,measurement,setting,value
CC(=O)O[C@H]1C(=O)[C@@]2(C)[C@H]([C@H](OC(=O)c3ccccc3)[C@]3(O)C[C@H](OC(=O)[C@H](O)[C@@H](NC(=O)c4ccccc4)c4ccccc4)C(C)=C1C3(C)C)[C@]1(OC(C)=O)CO[C@@H]1C[C@@H]2O [paclitaxel],KS lesions three months after initiation of the lower dose,Kaposi's sarcoma [1]; 35 mg/m^2 every 2 weeks,completely flat (Clinical Complete Remission)
same,tolerability,Kaposi's sarcoma [1]; 35 mg/m^2 every 2 weeks,"well tolerated, and their hair grew back while on therapy"
same,hair loss,Kaposi's sarcoma [1]; 75 mg/m^2,severe hair loss
same,response to the first dose,Kaposi's sarcoma [1]; 75 mg/m^2,rapid response
same,lesion count on the left forearm,"Kaposi's sarcoma [1]; after single dose of 75 mg/m^2, 32 lesions prior to paclitaxel",12 lesions
same,raised lesions on the left forearm,"Kaposi's sarcoma [1]; after single dose of 75 mg/m^2, all 32 raised prior to therapy",two
same,Any G-CSF use (percent),bone marrow suppression [2],69%
same,Never required G-CSF (percent),bone marrow suppression [2],48%
same,patients who did not require G-CSF,bone marrow suppression [2],approximately 50%
same,myelosuppression,Kaposi's sarcoma [3],increased incidents of myelosuppression
same,tumor growth,KS Y-1 cells,markedly inhibited
same,Any G-CSF use (fraction),bone marrow suppression [4]; n = 43,30/43
same,Never required G-CSF (fraction),bone marrow suppression [4]; [14],13/27
same,Required G-CSF after start of paclitaxel therapy (fraction),bone marrow suppression [4]; [14],14/27
same,bone marrow suppression (including neutropenia),bone marrow suppression [4]; patients who did not require G-CSF,not observed
same,length of time peak levels are achieved,"Kaposi's sarcoma [5]; 50-100 mg/m^2, three hour bolus, would be expected",less than 15 hours
same,myelosuppression,"Kaposi's sarcoma [5]; AUC 1-4 μM/hour, three hour bolus of 50-100 mg/m^2 every 14 days",not observed
same,unwanted hematological and non-hematological side effects,Kaposi's sarcoma [5]; peak levels maintained at 15 hours or less,absent
same,neutropenia and other side effects,"Kaposi's sarcoma [5]; threshold level 0.1-1 μM for shorter periods, AUC 1-4 μM/hour",reduce neutropenia and other side effects
same,Cmax,[6],100 to 1000 nM
same,effectiveness in KS versus other tumors,Kaposi's sarcoma [7]; 100 mg/m^2 every 2 weeks,more effective therapeutically to KS compared to any other tumor studied thus far in the clinic
same,tolerability,Kaposi's sarcoma [7]; 100 mg/m^2 every 2 weeks,extremely well tolerated
same,median duration of response,Kaposi's sarcoma [7]; 35-100 mg/m^2 every 10-16 days,greater than 20 weeks
same,median time to achieve partial response,Kaposi's sarcoma [7]; 35-100 mg/m^2 every 10-16 days,6-10 weeks
same,median time to achieve partial response (cycles),Kaposi's sarcoma [7]; 35-100 mg/m^2 every 10-16 days,3-5 cycles
same,side effects,Kaposi's sarcoma [7]; aside from mild to moderate hair loss and occasional other mild toxicities,the lack of side effects is extraordinary
same,"duration of response as reflected by the median number of cycles tolerated, versus all previously studied drugs",Kaposi's sarcoma [7]; compared to all previously studied drugs and combinations,two fold longer
same,"duration of response, range",Kaposi's sarcoma [7]; up to,up to 60 weeks
same,dose generally required to obtain responses,"[8]; 3-96 hour infusion, every 3-4 weeks",175-200 mg/m^2
same,threshold peak level necessary for pharmaceutical effect,"[8]; Wiernak, et al.",0.1 µM
same,"Cycles to response, range",AIDS-KS [9]; 100 mg/m^2 iv every 2 weeks,3-9 cycles
same,Median cycles to response,AIDS-KS [9]; 100 mg/m^2 iv every 2 weeks,5 cycles
same,median duration of response,AIDS-KS [9]; 100 mg/m^2 iv every 2 weeks,≥ 5 months
same,Complete response (count),AIDS-KS [9]; [15],0
same,Minimal response/stable disease (count),AIDS-KS [9]; [15],12
same,Minimal response/stable disease (percent),AIDS-KS [9]; [15],34%
same,Partial response (count),AIDS-KS [9]; [15],23
same,Partial response (percent),AIDS-KS [9]; [15],66%
same,Progression (count),AIDS-KS [9]; [15],0
same,Median Survival,AIDS-KS [9]; not reached,> 6 months
same,activity in patients with prior systemic chemotherapy,AIDS-KS [9]; preliminary results,confirmed
same,IC50,"[10]; P1(0.5), KS Y-1 P105, treated day 1 and 3, counted day 5 or 6",2 to 3 ng/mL
same,sensitivity of KS cells to paclitaxel in vitro,[10]; in vitro,as sensitive to paclitaxel as human ovarian cell lines; also recorded: unusual sensitivity
same,"Cycles to response, range",AIDS-KS [11],3-9 cycles
same,Median cycles to response,AIDS-KS [11],3 cycles
same,Complete response (count),AIDS-KS [11]; 19 evaluable,1
same,Complete response (percent),AIDS-KS [11]; 19 evaluable,5%
same,Minimal response/stable disease (count),AIDS-KS [11]; 19 evaluable,6
same,Minimal response/stable disease (percent),AIDS-KS [11]; 19 evaluable,32%
same,Partial response (count),AIDS-KS [11]; 19 evaluable,12
same,Partial response (percent),AIDS-KS [11]; 19 evaluable,63%
same,Progression (count),AIDS-KS [11]; 19 evaluable,0
same,"Anemia, Grade 2 (count)",AIDS-KS [11]; n = 20,6
same,"Anemia, Grade 2 (percent)",AIDS-KS [11]; n = 20,30%
same,"Anemia, Grade 3 (count)",AIDS-KS [11]; n = 20,0
same,"Anemia, Grade 4 (count)",AIDS-KS [11]; n = 20,0
same,"Diarrhea, Grade 3",AIDS-KS [11]; n = 20,0
same,"Diarrhea, Grade 4",AIDS-KS [11]; n = 20,0
same,"Fevers, Grade 3",AIDS-KS [11]; n = 20,1
same,"Fevers, Grade 4",AIDS-KS [11]; n = 20,0
same,"Myalgia, Grade 3",AIDS-KS [11]; n = 20,0
same,"Nausea/Vomiting, Grade 1/2",AIDS-KS [11]; n = 20,8
same,"Neuropathy, Grade 3",AIDS-KS [11]; n = 20,0
same,"Neuropathy, Grade 4",AIDS-KS [11]; n = 20,0
same,"Neutropenia, Grade 2 (count)",AIDS-KS [11]; n = 20,4
same,"Neutropenia, Grade 2 (percent)",AIDS-KS [11]; n = 20,20%
same,"Neutropenia, Grade 3 (count)",AIDS-KS [11]; n = 20,2
same,"Neutropenia, Grade 3 (percent)",AIDS-KS [11]; n = 20,10%
same,"Neutropenia, Grade 4 (count)",AIDS-KS [11]; n = 20,3
same,"Neutropenia, Grade 4 (percent)",AIDS-KS [11]; n = 20,15%
same,"Rash ± Pruritus, Grade 1/2",AIDS-KS [11]; n = 20,9
same,"Rash ± Pruritus, Grade 3",AIDS-KS [11]; n = 20,0
same,"Thrombocytopenia, Grade 2 (count)",AIDS-KS [11]; n = 20,0
same,"Thrombocytopenia, Grade 3 (count)",AIDS-KS [11]; n = 20,0
same,"Thrombocytopenia, Grade 4 (count)",AIDS-KS [11]; n = 20,0
same,disease status after one cycle,"Kaposi's sarcoma [12]; 35 mg/m^2, after relapse",stable
same,number of doses to complete tumor resolution,Kaposi's sarcoma [12]; 75 mg/m^2 every two weeks,five
same,period to complete tumor resolution,Kaposi's sarcoma [12]; 75 mg/m^2 every two weeks,eight
same,response,Kaposi's sarcoma [12]; [16],"remarkable response with resolution of KS, oozing, foul smell and edema"
same,toxicities experienced,Kaposi's sarcoma [12]; [16],skin itching and moderate hair loss
same,bone marrow suppression and neutropenia,"Kaposi's sarcoma [12]; 75 mg/m^2 every two weeks, three hour infusion, no G-CSF",lack of bone marrow suppression and accompanying neutropenia
same,biopsy of the area of skin tumor,Kaposi's sarcoma [12]; after 75 mg/m^2 every two weeks,lack of KS pathologically
same,remission after the last combination chemotherapy treatment,Kaposi's sarcoma [12]; paclitaxel alone and in combination with liposomally encapsulated doxorubicin for five months,eight
same,patients with partial or complete response,Kaposi's sarcoma [13],five of the ten
same,responses in patients who had previously failed chemotherapy,Kaposi's sarcoma [13],Responses were observed
same,responses in patients with otherwise fatal pulmonary disease,Kaposi's sarcoma [13],Responses were also observed
same,tolerability,Kaposi's sarcoma [13],well tolerated
same,tumor associated edema,Kaposi's sarcoma [13],resolution of tumor associated edema was observed
bleomycin,pneumonitis,"Kaposi's sarcoma [12]; combination chemotherapy of bleomycin, vincristine and adriamycin",pneumonitis with bilateral diffuse infiltration
